Results taken from US20170080128A1, “NOVEL ENDOTRACHEAL TUBE FOR THE REDUCTION OF INTUBATION-RELATED COMPLICATION IN NEONATES AND BABIES” (Brigham Young University, priority 2015, published 2017).

Test system: tracheal mucosal integrity
Assay: Tracheal mucosal integrity of intubated pre-term lambs (histology)
Format: in vivo
Description: FIG. 2 compares histological images of tracheal tissue of a pre-term lamb intubated with an ETT not coated with a CSA-containing coating to tracheal tissue of a pre-term lamb intubated with an ETT coated with a CSA-containing coating.
Pre-term lambs were intubated using ETTs including a coating having CSA-131 and tracheal mucosal integrity of the lambs was compared to the tracheal mucosal integrity of a control group (intubated with uncoated ETTs). […] FIG. 2 illustrates the histological appearance of tracheas of the premature lambs that were intubated for three days. […] An area of denuded epithelium (arrowhead), and accumulation of white blood cells (arrow) are highlighted.

For `CCCCCCCCCCCCNCCC[C@@H](C)[C@H]1CC[C@H]2[C@@H]3[C@H](OCCCN)C[C@@H]4C[C@H](OCCCN)CC[C@]4(C)[C@H]3C[C@H](OCCCN)[C@]12C.Cl.Cl.Cl.Cl` [CSA-131], the “Histological appearance of trachea (FIG. 2, image (b))” value (ETT coated with a CSA-131 containing coating, intubated for three days) was “the epithelium is intact and the subjacent connective tissue region is not inflamed” and the “Tracheal mucosal integrity compared to control group (uncoated ETTs)” value (ETTs including a coating having CSA-131) was “markedly improved mucosal integrity”.
